Laboratory results from patent publication US20110201569A1, “Methods For Treating Myocardial Disorders” (priority 2009, published 2011).
Entries after “also recorded” stand apart in the source; their conditions may differ.

Experiments:
Type in all cases: in vivo, mouse
TNF-α = assay: qRT-PCR of TNF-α mRNA in left ventricle after TAC/sham; details: Example 1, TAC, three days after surgery, M ± SEM
Experimental: (§1) 11 to 13 week old male C57BL/6 mice were purchased from Charles River (Germany). Mice were housed in individually ventilated pathogen-free cages with free access to water and standard rodent chow. The animals were handled according to the principles of laboratory animal care (NIH publication No. 85-23, revised 1996), and animal procedures were approved by the local committee for animal care.
(§2) The first injection was performed 5 min prior to TAC or sham-operation procedure (described below) and repeated 4, 8, 12, 24, 36, 48 and 60 hrs after surgery. […]
(§3) Quantitative real-time PCR analysis was completed. […] RNA was dissolved in 100 μl of RNase-free water, and concentration was determined photometrically (absorbance at 260 nm) before storage at −80° C. […]
(§4) Real-time PCR was performed according to the manufacturer's protocol. […] Each sample was measured in triplicate wells and underwent 40 cycles of amplification on an ABI PRISM® Sequence Detection System (Applied Biosystems). CT values were determined with SDS Software 2.2 (Applied Biosystems) and relative quotients (RQ) were calculated following the ΔΔCT method (RQ target gene/GAPDH).
(§5) Statistics were calculated using Prism 4.05 (GraphPad Software Inc., CA, USA). All values are expressed as mean (M)±SEM. […]

IL-6 [1] = assay: qRT-PCR of IL-6 mRNA in left ventricle after TAC/sham
Experimental: as §1, §2, §3, §4, §5

IL-6 [2] = assay: ELISA of IL-6 protein in myocardial tissue after TAC/sham
Experimental: as §1
(§6) The first injection was performed 5 min prior to TAC or sham-operation procedure (described below) and repeated 4, 8, 12, 24, 36, 48 and 60 hrs after surgery. Animals were randomly assigned into two groups, receiving either a tetrasodium salt of the compound of formula 1 (hereinafter “Eritoran tetrasodium”) or placebo. […]
(§7) For ELISA assays, proteins from snap-frozen myocardial tissue were isolated and cytosolic and nuclear proteins separated according to the manufacturer's protocol (NE-PER®, Nuclear and Cytoplasmic Extraction Kit, Pierce®, Thermo Scientific, IL, USA). Myocardial protein levels in the cytoplasmic fraction were detected with Quantikine mouse IL-1β as well as IL-6 ELISA (R&D Systems, […], USA) as described in the manufacturer's protocol. […] Protein concentration was determined by B CA protein assay (Pierce®).
as §5

IL-1β [3] = assay: ELISA of IL-1β protein in myocardial tissue after TAC/sham
Experimental: as §1, §6, §7, §5

[4] = test system: total matrix metalloproteinase (MMP-2+MMP-9); assay: Total MMP mRNA (MMP-2+MMP-9) calculated from qRT-PCR; details: Example 1; TAC vs sham within treated groups; three days after surgery
Experimental: as §1, §2, §3, §4, §5

Tristetraprolin (TTP) = assay: qRT-PCR of TTP mRNA in left ventricle after TAC/sham; details: Example 1, three days after surgery
Experimental: as §1, §2, §3, §4, §5

[5] = test system: brain natriuretic peptide (BNP); assay: qRT-PCR of BNP mRNA in left ventricle after TAC/sham; details: Example 2; TAC treated vs TAC-placebo
Experimental: as §1, §2, §3, §4, §5

IL-1β [6] = assay: qRT-PCR of IL-1β mRNA in left ventricle after TAC/sham; details: Example 2; TAC treated vs TAC-placebo
Experimental: as §1, §2, §3, §4, §5

[7] = Example 1, TAC, three days after surgery

Structure (SMILES) | TNF mRNA level (TNF-α) | IL-6 mRNA level (IL-6 [1]; Example 1, TAC, three days after surgery, qRT-PCR, M ± SEM) | IL-6 protein expression (ELISA) (IL-6 [2]; [7]) | IL-1β protein expression (ELISA) (IL-1β [3]; [7]) | total MMP mRNA level (MMP-2+MMP-9) [4] | TTP/TNFα ratio (Tristetraprolin (TTP); TAC) | TTP/TNFα ratio (Tristetraprolin (TTP); sham operation) | BNP mRNA expression [5] | IL-6 mRNA expression (IL-6 [1]; Example 2, TAC treated vs TAC-placebo) | IL-1β mRNA expression (IL-1β [6]) | IL-6 protein expression (IL-6 [2]; Example 2, TAC treated group) | IL-1β protein expression (IL-1β [3]; Example 2, TAC treated group)
CCCCCC/C=C\CCCCCCCCCC(=O)N[C@H]1[C@H](OC[C@H]2O[C@H](OP(=O)([O-])[O-])[C@H](NC(=O)CC(=O)CCCCCCCCCCC)[C@@H](OCCCCCCCCCC)[C@@H]2O)O[C@H](COC)[C@@H](OP(=O)([O-])[O-])[C@@H]1OCC[C@@H](CCCCCCC)OC.[Na+].[Na+].[Na+].[Na+] [Eritoran tetrasodium] | 1.32±0.19 | 16.60 ± 7.55 | did not display significant increases; also recorded: lower levels of pro-inflammatory cytokines compared to TAC placebo hearts (not significant) | did not display significant increases; also recorded: lower levels of pro-inflammatory cytokines compared to TAC placebo hearts (not significant) | remained unchanged by aortic banding | 0.61±0.33 | 1.40±0.33 | – | – | – | – | –
CCCCCC/C=C\CCCCCCCCCC(=O)N[C@H]1[C@H](OC[C@H]2O[C@H](OP(=O)(O)O)[C@H](NC(=O)CC(=O)CCCCCCCCCCC)[C@@H](OCCCCCCCCCC)[C@@H]2O)O[C@H](COC)[C@@H](OP(=O)(O)O)[C@@H]1OCC[C@@H](CCCCCCC)OC [compound of formula (I), α-D-Glucopyranose, 3-O-decyl-2-deoxy-6-O-[2-deoxy-3-O-[(3R)-3-methoxydecyl)-6-O-methyl-2-[[(−11Z)-1-oxo-11-octadecenyl)amino]-4-O-phosphono-β-D-glucopyranosyl]-2-[(1,3-dioxotetradecyl)amino]-1-(dihydrogen phosphate)] | – | – | – | – | – | – | – | elevated in TAC-placebo mice compared to sham and the TAC groups treated | lower | lower | reduced | reduced
